From patent US9744175B2, “Compositions of combinations of non-covalent DNA binding agents and anti-cancer and/or anti-inflammatory agents and their use in disease treatment” (INDUS PHARMACEUTICALS, INC., priority 2012, dated 2017)

Experiments:
HCT116 (mlh−) = assay: siRNA inhibition of p53 and REV functions, alamar blue growth inhibition; assay type: cell-based, human
Description: (§1) siRNA specific for different genes is purchased from Dharmacon (Thermo. Fisher Scientific Dharmacon Products, Lafayette, Colo. 80026) and the protocol recommended by the supplier is utilized. Confluent cells are trypsinized and 5000 cells are seeded in a well in the presence or absence of siRNA in 100 μL medium. The cells are incubated with siRNA for two days. A non-covalent DNA binding agent of the invention is added in a 10 μL volume and incubated for another 48 hours. After treatment with the agent, the medium is replaced with 1% alamar blue containing medium to measure fluorescence after two hours.
as §1, with “from Dharmacon (Thermo Fisher Scientific” for “from Dharmacon (Thermo. Fisher Scientific”, “two hours. […] The results are presented in FIGS. 14-18 (SEQ ID NO:3-12, respectively) and Table 7.” for “two hours.”

U2OS Wild type = assay: siRNA inhibition of MMR, p53 and REV functions, alamar blue growth inhibition; assay type: cell-based, human
Description: as §1
as §1, with “from Dharmacon (Thermo Fisher Scientific” for “from Dharmacon (Thermo. Fisher Scientific”, “two hours. […] The results are presented in FIGS. 14-18 (SEQ ID NO:3-12, respectively) and Table 7.” for “two hours.”

Wild type yeast = assay: Alamar Blue cell survival assay in yeast cells; assay type: cell-based
Description: (§2) The cells are diluted 100-fold in yeast complete medium. 100 μL of diluted cells are seeded in 96 well plates with or without a non-covalent DNA binding compound and incubated for 24 hours at 30° C. The following day, an equal volume of yeast complete medium containing 1% alamar blue is added and incubated at 30° C. for two hours. Fluorescence intensity is measured in a fluorescent reader to calculate the inhibition effect of non-covalent DNA binding agents in mutant and wild type yeast cells.
(§3) Yeast cells that carry mutations in different genes involved in homologous recombination (rad 50, rad51, rad52, and rad57) and nucleotide excision/double strand repair (rad1) are grown to stationary culture overnight.

yeast rad1 mutation = assay: Alamar Blue cell survival assay in yeast cells; assay type: cell-based
Description: as §2, §3

yeast rad50 mutation = assay: Alamar Blue cell survival assay in yeast cells; assay type: cell-based
Description: as §2, §3

yeast rad51 mutation = assay: Alamar Blue cell survival assay in yeast cells; assay type: cell-based
Description: as §2, §3

yeast rad52 mutation = assay: Alamar Blue cell survival assay in yeast cells; assay type: cell-based
Description: as §2, §3

## CC[C@@]1(O)C(=O)OCc2c1cc1n(c2=O)Cc2cc3ccccc3nc2-1 [Camptothecin, (S)-4-ethyl-4-hydroxy-1H-pyrano[3′,4′:6,7]indolizino[1,2-b]quinoline-3,14-(4H,12H)-dione, reference compound]
HCT116 (mlh−); Homo sapiens, HCT-116, no siRNA knock out, read-out: IC50, Control
  IC50: 0.25 µM
HCT116 (mlh−); p53 siRNA vs control
  Fold improvement in IC50, p53: 1.3 fold
HCT116 (mlh−); rev siRNA vs control
  Fold improvement in IC50, rev: 1.7 fold

## COc1cccc2c1C(=O)c1c(O)c3c(c(O)c1C2=O)C[C@@](O)(C(=O)CO)C[C@@H]3OC1CC(N)C(O)C(C)O1 (stereo partly drawn) [Doxorubicin, (8S,10S)-10-(4-amino-5-hydroxy-6-methyl-tetrahydro-2H-pyran-2-yloxy)-6,8,11-trihydroxy-8-(2-hydroxyacetyl)-1-methoxy-7,8,9,10-tetrahydrotetracene-5,12-dione, reference compound]
U2OS Wild type; Homo sapiens, no siRNA knock out, read-out: IC50, Control
  IC50: 0.7 µM
U2OS Wild type; mlh1 siRNA vs control
  Fold improvement in IC50, mlh1: 0.23 fold
U2OS Wild type; p53 siRNA vs control
  Fold improvement in IC50, p53: 0.7 fold
U2OS Wild type; rev siRNA vs control
  Fold improvement in IC50, rev: 0.35 fold

## COc1cc2c(cc1OCCCCOc1cc(-c3ccc(F)cc3)nc(C)n1)N=C[C@@H]1CCCN1C2=O [NSC 723732]
Wild type yeast
  IC50: > 250 µM
Yeast rad1 mutation
  IC50: > 250 µM
Yeast rad50 mutation
  IC50: > 250 µM
Yeast rad51 mutation
  IC50: 100 µM
Yeast rad52 mutation
  IC50: 105 µM
